Laboratory results from patent publication US12466834B2, “Imidazodiazepinediones and methods of use thereof” (GFB (ABC), LLC, priority 2018, dated 2025).
pIC50: −log10 of the molar value.

Tests used:
human TRPC5 [1] = molecular target: T1, human TRPC5 (Homo sapiens, UniProt Q9UL62); test: FLIPR calcium assay, inhibition of riluzole-activated TRPC5 calcium response; assay type: cell-based; conditions: ICLN-1633 cells; riluzole 30 μM stimulation; Fluo-4 calcium response; read-out: Inhibitor Potency Range (FLIPR)
T1 construct: expressed in transfected cells
T1 sequence (Q9UL62 1-973): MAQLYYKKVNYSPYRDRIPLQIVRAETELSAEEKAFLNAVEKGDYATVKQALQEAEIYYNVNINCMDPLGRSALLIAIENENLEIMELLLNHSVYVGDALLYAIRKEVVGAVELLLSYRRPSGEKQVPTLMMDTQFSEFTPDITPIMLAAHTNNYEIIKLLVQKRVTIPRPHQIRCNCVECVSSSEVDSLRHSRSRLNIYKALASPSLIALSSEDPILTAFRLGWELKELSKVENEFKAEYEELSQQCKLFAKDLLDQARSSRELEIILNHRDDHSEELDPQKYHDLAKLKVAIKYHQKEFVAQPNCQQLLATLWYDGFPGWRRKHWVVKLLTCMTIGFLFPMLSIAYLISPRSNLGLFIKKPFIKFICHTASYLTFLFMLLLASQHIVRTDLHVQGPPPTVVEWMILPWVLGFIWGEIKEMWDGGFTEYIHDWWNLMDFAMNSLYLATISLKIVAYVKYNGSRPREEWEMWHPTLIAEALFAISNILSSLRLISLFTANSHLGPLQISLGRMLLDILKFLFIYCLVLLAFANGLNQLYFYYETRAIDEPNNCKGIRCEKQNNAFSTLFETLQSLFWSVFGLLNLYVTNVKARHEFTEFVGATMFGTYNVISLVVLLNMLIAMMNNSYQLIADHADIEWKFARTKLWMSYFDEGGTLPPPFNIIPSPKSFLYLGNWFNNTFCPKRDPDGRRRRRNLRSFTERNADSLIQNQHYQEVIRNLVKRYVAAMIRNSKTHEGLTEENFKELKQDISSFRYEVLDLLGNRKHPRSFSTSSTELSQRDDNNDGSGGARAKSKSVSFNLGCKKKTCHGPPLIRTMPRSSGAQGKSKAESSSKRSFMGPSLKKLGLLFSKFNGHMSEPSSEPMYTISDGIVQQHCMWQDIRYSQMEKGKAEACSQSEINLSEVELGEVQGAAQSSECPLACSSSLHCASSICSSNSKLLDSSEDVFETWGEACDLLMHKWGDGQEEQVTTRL
Protocol: (§1) ICLN-1633 cells (HEK-TREx hTRPC5) expressing TRPC5 were generated as follows. Commercially available HekTrex-293 cells were seeded at 0.7×10^6 cells/well in a 1×6-well plate 24 hrs prior to transfection using 2 mL cell growth media containing no antibiotics (1× DMEM/high glucose (Hyclone #SH30022.02); 10% fetal bovine serum (Sigma) 2 mM sodium pyruvate, 10 mM HEPES). The human TRPC5 coding sequence (NM_012471 with a silent T478C mutation) was cloned into pcDNA5/TO (Invitrogen; Cat No. V103320) using hygromycin as the resistance gene and the plasmid (SEQ ID NO:1) propagated using T-Rex-293 cells (Invitrogen; Cat No. R71007) following manufacturer's directions. On day 2, 2 μg of plasmid DNA plus 6 μl of Xtreme-GENE HP reagent in Optimem (200 μl total volume) was prepared and incubated for 15 min at room temperature. This plasmid solution was then gently overlayed dropwise onto each well and the plate was gently swirled to mix complex with the media for approximately 30 seconds. Transfected cells were incubated at 37° C. in a 10% CO2 incubator for 24 hrs. The transfected cells were harvested and transferred into 2×150 mm dishes containing cell growth media with no antibiotics at 37° C.
Compounds were made up to, or supplied as a 10 mM stock solution generally using DMSO as the vehicle. 10-point dose response curves were generated using the Echo-550 acoustic dispenser. Compound source plates were made by serially diluting compound stocks to create 10 mM, 1 mM, and 0.1 mM solutions in DMSO into Echo certified LDV plates. The Echo then serially spotted 100% DMSO stock solutions into source dose response plates to generate a 4-fold dilution scheme. 100% DMSO was added to the spotted dose response plates to bring the final volume to 5 μl. 300 nl of the dose response stock plate was then spotted into pre-incubation and stimulation assay plates. 50 μl of pre-incubation buffer and 100 μl of stimulation buffer was then added to the plates resulting in a final assay test concentration range of 30 μM to 0.0001 μM with a final DMSO concentration of 0.3%.
Human ICLN-1633 cells expressing were plated onto 384 well, black poly-D-lysine-coated microplates and maintained in TRPC5 growth media the day prior to use for experiments. TRPC5 expression was induced by the application of 1 μg/mL tetracycline at the time of plating. Media was removed from the plates and 10 μl of 4 μM of Fluo-4 AM (mixed with equal volume of Pluronic F-127) in Earls's Balanced Salt Solution (EBSS) was added to the cells. Cells were incubated at room temperature, protected from light, for 60-90 minutes. After the incubation period, the dye was removed and replaced with 10 μl of EBSS. Cell, pre-incubation and stimulation plates were loaded onto the FLIPR-II and the assay was initiated. The FLIPR measured a 10 second baseline and then added 10 μl of 2× compounds (or controls). Changes in fluorescence were monitored for an additional 5 minutes. After the 5 minute pre-incubation, 20 μl of 2× riluzole (with 1× compound or controls) was added to the cell plate. The final riluzole stimulation concentration in the assay was 30 μM. After the riluzole addition, changes in fluorescence were monitored for an additional 5 minutes. Reduction in the riluzole-activated calcium response relative to control wells was reported as inhibition. A compound-mediated increase in the riluzole response relative to control riluzole response (no test agent present) with no enhancement of calcium entry during preincubation phase was reported as an agonist response.
Compound inhibition of TRPC5 calcium response was determined as follows. After the riluzole addition, fluorescence was monitored for a 5-minute period. For inhibition, the maximum relative fluorescence response (minus the control response of 1 μM of an internal control compound known to maximally block TRPC5 calcium response, the “REF INHIB” in the formula below) was captured and exported from the FLIPR. […]

human TRPC5 [2] = molecular target: T1, human TRPC5; test: Automated patch clamp assay (QPatch), antagonist mode; assay type: cell-based; conditions: HEK-TREx hTRPC5 cells; channel activated with Rosiglitazone 30 μM; normalised to ML-204 block; read-out: Qpatch Potency Range
Protocol: as §1
The next day selection was initiated to generate a stable pool by adding cell growth media containing 150 μg/mL Hygromycin and 5 μg/mL Blasticidin and cells were allowed to grow. Media with the selection agent was changed every 1-2 days as needed to remove dead cells. After 7 days, the hygromycin concentration was reduced to 75 μg/mL and cells growth was allowed to continue.
Single clones were selected as follows. The stable pool was diluted to 10 cells/mL and seeded (100 μl/well) into 24×96 well plates (˜1 cell/well) and allowed to grow for 7 days in cell growth media. Fresh media (100 μl) was added and the cells allowed to grow for another 1-2 weeks and then stored frozen or used immediately.
The automated electrophysiological assay was carried out at room temperature. On the day of the experiment, TRPC5 cells were cultured according to our Standard Operating Procedure. Briefly, cells were harvested using TrypLE™ Express, re-suspended in serum free medium, added to the automated platform and used within 0.5-3 hours. Internal and external physiological solutions were freshly prepared prior to the assay. The external solution contained: 145 mM NaCl, 4 mM KCl, 2 mM CaCl2, 1 mM MgCl2, 10 mM HEPES, 10 mM glucose, pH 7.4 with NaOH and 310 mOsm/L. The internal solution contained 120 mM L-aspartic acid, 120 mM CsOH·H2O, 20 mM CsCl, 2 mM MgCl2, 8.8 mM CaCl2, 10 mM EGTA, 10 mM HEPES and 2 mM Na2ATP; pH 7.2 with CsOH and 330 mOsm/L. The free internal Ca^2+ concentration was buffered to 1 μM, according to the WCabuf software. The automated electrophysiological platform QPatch 16 from Sophion (Denmark) was used to carry out the compounds profiling. The series resistance and quality of seals were continuously monitored during the experiments. Data were analyzed using Sophion QPatch assay software 5.6 (Odense). Data were normalized using the maximum activation obtained during the pre-compound agonist application as the top value (1.0) and maximum inhibition induced by ML-204 as the bottom value (0.0). IC50 values were calculated using a least squares regression algorithm (Hill equation).
To monitor the ion currents, a voltage ramp from −100 mV to +100 mV, over 300 ms, was applied every 10 seconds, from a holding potential of −60 mV. Antagonist-mode: After recording for a minimum of 60 seconds control period, the EC60 concentration of the TRPC5 agonist, Rosiglitazone (30 μM), was applied to activate the channel. After reaching steady-state, co-application of increasing concentrations of test compound were applied followed by two applications of Rosiglitazone EC60 and a saturating concentration of the specific blocker ML-204 (100 μM).

pIC50 (human TRPC5 [1])	pIC50 (human TRPC5 [2])	Compound
< 5.00	< 4.52	C[C@H](c1ccc(Cl)cc1)n1c(Oc2cccc(F)c2)nc2c1C(=O)N(CCCO)CC(=O)N2C (single isomer, unassigned) [Compound 6]
< 5.00	4.52 to 6.00	C[C@@H](c1ccc(Cl)cc1)n1c(Oc2cccc(F)c2)nc2c1C(=O)N(CCCO)CC(=O)N2C (single isomer, unassigned) [Compound 7]
6.00 to 9.00		CN1C(=O)CN([C@@H]2CC[C@@H](O)C2)C(=O)c2c1nc(Oc1cccc(OC(F)(F)F)c1)n2Cc1ccc(Cl)cc1 (single isomer, unassigned) [Compound 15]
5.00 to 6.00		CN1C(=O)CN([C@H]2CC[C@H](O)C2)C(=O)c2c1nc(Oc1cccc(OC(F)(F)F)c1)n2Cc1ccc(Cl)cc1 (single isomer, unassigned) [Compound 16]
	< 4.52	CN1C(=O)[C@H](CCO)N(C)C(=O)c2c1nc(Oc1cccc(OC(F)(F)F)c1)n2Cc1ccc(Cl)cc1 (single isomer, unassigned) [Compound 17]
< 5.00	6.00 to 9.00	CN1C(=O)[C@@H](CCO)N(C)C(=O)c2c1nc(Oc1cccc(OC(F)(F)F)c1)n2Cc1ccc(Cl)cc1 (single isomer, unassigned) [Compound 18]
6.00 to 9.00	4.52 to 6.00	C[C@H]1C(=O)N(C)c2nc(Oc3cccc(F)c3)n(Cc3ccc(Cl)cc3)c2C(=O)N1CCCO (single isomer, unassigned) [Compound 20]
6.00 to 9.00		O=C1c2c(nc(Oc3cccc(OC(F)(F)F)c3)n2Cc2ccc(Cl)cc2)N2CCC[C@@H]2CN1CCCO (single isomer, unassigned) [Compound 34]
5.00 to 6.00		O=C1c2c(nc(Oc3cccc(OC(F)(F)F)c3)n2Cc2ccc(Cl)cc2)N2CCC[C@H]2CN1CCCO (single isomer, unassigned) [Compound 35]
	4.52 to 6.00	CN1CCN(CCCO)C(=O)c2c1nc(Oc1cccc(OC(F)(F)F)c1)n2Cc1ccc(Cl)cc1 [Compound 1, 1-[(4-chlorophenyl)methyl]-7-(3-hydroxypropyl)-4-methyl-2-[3-(trifluoromethoxy)phenoxy]-1H,4H,5H,6H,7H,8H-imidazo[4,5-e][1,4]diazepin-8-one]
5.00 to 6.00		CCCCn1c(Oc2cccc(OC(F)(F)F)c2)nc2c1C(=O)N(CCCO)CC(=O)N2C [Compound 3]
5.00 to 6.00		CN1C(=O)CN(CCCO)C(=O)c2c1nc(Oc1cccc(F)c1)n2Cc1ccc(Cl)cc1 [Compound 4]
5.00 to 6.00		COCCCN1CC(=O)N(C)c2nc(Oc3cccc(OC(F)(F)F)c3)n(Cc3ccc(Cl)cc3)c2C1=O [Compound 8, 1-[(4-chlorophenyl)methyl]-7-(3-methoxypropyl)-4-methyl-2-[3-(trifluoromethoxy)phenoxy]-1H,4H,5H,6H,7H,8H-imidazo[4,5-e][1,4]diazepine-5,8-dione]
	4.52 to 6.00	CN1C(=O)CN(CC(O)CO)C(=O)c2c1nc(Oc1cccc(OC(F)(F)F)c1)n2Cc1ccc(Cl)cc1 (centres unmarked) [Compound 9, 1-[(4-chlorophenyl)methyl]-7-(2,3-dihydroxypropyl)-4-methyl-2-[3-(trifluoromethoxy)phenoxy]-1H,4H,5H,6H,7H,8H-imidazo[4,5-e][1,4]diazepine-5,8-dione]
5.00 to 6.00		CN1C(=O)CN(CCO)C(=O)c2c1nc(Oc1cccc(OC(F)(F)F)c1)n2Cc1ccc(Cl)cc1 [Compound 10, 1-[(4-chlorophenyl)methyl]-7-(2-hydroxyethyl)-4-methyl-2-[3-(trifluoromethoxy)phenoxy]-1H,4H,5H,6H,7H,8H-imidazo[4,5-e][1,4]diazepine-5,8-dione]
	4.52 to 6.00	CN1C(=O)CN([C@H]2C[C@H](O)C2)C(=O)c2c1nc(Oc1cccc(OC(F)(F)F)c1)n2Cc1ccc(Cl)cc1 [Compound 13]
6.00 to 9.00		O=C1c2c(nc(Oc3cccc(F)c3)n2Cc2ccc(Cl)cc2)N2CCC[C@H]2C(=O)N1CCCO [Compound 26]
6.00 to 9.00		CCCCn1c(Oc2cccc(Cl)c2)nc2c1C(=O)N(CCCO)C(=O)[C@@H]1CCCN21 [Compound 32]
6.00 to 9.00		O=C1c2c(nc(Oc3cccc(Cl)c3)n2Cc2ccc(Cl)cc2)N2CCC[C@H]2C(=O)N1CCCO [Compound 33]
